{"source": "paper PMC12631437", "about": "“Evaluation of the Activity of 4‑Quinolones against Multi-Life Stages of Plasmodium spp” (ACS Omega, 2025)", "key": {"[1]": {"system": "P. falciparum hepatic stages", "conditions": "cited from earlier work"}, "[2]": {"system": "P. falciparum V1/S strain", "assay": "microbe, parasite or virus in culture", "assay_type": "cell-based, Plasmodium falciparum", "conditions": "Plasmodium falciparum, 72 h", "experimental": "(§1) Healthy blood samples for parasite culture were obtained from voluntary donors (approved under protocol #28176720.9.0000.0011), processed to remove white blood cells, and stored at 2 °C–8 °C for up to 15 days. Parasite strains SB1-A6, 7G8, V1/S, and HB3 were acquired from BEI-MR4, while the ATQ R1 strain, carrying a V259L gene mutation, was generated in-house. Infected erythrocytes were cultured in RPMI 1640 medium supplemented with Hepes, sodium bicarbonate, glucose, Albumax, and gentamicin, […], and incubated in a 5% CO2, 5% O2, and 90% N2 gas mixture at 37 °C with daily medium changes. Parasitemia was monitored using Giemsa-stained blood smears.\n(§2) Bioassays were conducted with synchronized ring-stage parasites using sorbitol synchronization. Antimalarial compounds were evaluated in 96-well plates, and parasite growth was assessed using a SYBR Green-based fluorescence assay The assays were conducted when the parasite quantity reached at least 70% of the ring stage. Compounds were initially added at specific concentrations in the first wells, followed by serial dilution (1:2) ranging from 20 μM to 0.009 μM. Subsequently, a solution containing parasites in RPMI medium at a hematocrit of 2% was added to each well, and the parasites were then incubated for 72 h.\n(§3) To assess parasite growth, the culture medium was replaced with a lysis solution (Trisbase: 49.31%, EDTA: 30.00%, Saponin: 0.16%, Triton: 0.02%) containing the fluorescent dye SYBR Green (Sigma). After a 30 min incubation, fluorescence readings were taken to determine the 50% inhibitory concentration (IC50) of parasite growth. The IC50 values were determined using concentration–response curves generated in GraphPad 8 software. Additionally, the resistance index was calculated by comparing IC50 values obtained for the sensitive 3D7 strain with those of the resistant strains."}, "[3]": {"system": "P. falciparum SB1-A6 strain", "assay": "SYBR Green growth assay, asexual blood stages, SB1-A6 strain", "assay_type": "cell-based, Plasmodium falciparum", "conditions": "Plasmodium falciparum, 72 h", "experimental": "as §1, §2, §3"}, "P. falciparum HB3 strain": {"system": "P. falciparum HB3 strain", "assay": "SYBR Green growth assay, asexual blood stages, HB3 strain", "assay_type": "cell-based, Plasmodium falciparum", "conditions": "Plasmodium falciparum; HB3 strain, 72 h; read-out: IC50", "experimental": "(§4) Parasite strains SB1-A6, 7G8, V1/S, and HB3 were acquired from BEI-MR4, while the ATQ R1 strain, carrying a V259L gene mutation, was generated in-house. […] Parasitemia was monitored using Giemsa-stained blood smears.\nas §2\n(§5) The IC50 values were determined using concentration–response curves generated in GraphPad 8 software. Additionally, the resistance index was calculated by comparing IC50 values obtained for the sensitive 3D7 strain with those of the resistant strains."}, "[4]": {"system": "Plasmodium falciparum 3D7 sensitive strain", "assay": "SYBR Green growth assay, asexual blood stages, 3D7 sensitive strain", "assay_type": "cell-based", "conditions": "Plasmodium falciparum, 3D7, 72 h, asexual blood stages, 3D7 sensitive strain, 72 h; read-out: IC50", "experimental": "as §4, §2, §5"}, "HepG2 cells": {"system": "HepG2 cells", "assay": "Mitochondrial toxicity, HepG2 cells cultured in glucose or galactose (resazurin)", "assay_type": "cell-based", "conditions": "HepG2 under either condition (glucose or galactose), 3.125–50 μM, 24 h", "experimental": "To evaluate mitochondrial toxicity, HepG2 cells were cultured in RPMI-1640 medium under two metabolic conditions: one group was maintained in standard RPMI supplemented with 2 g/L glucose (glucose condition), while the second group was gradually adapted to rely on galactose as the primary energy source. For this adaptation, glucose levels were reduced by 20% every 2 days until reaching a final concentration of 20% of the original glucose amount. On the day of the assay, the […] cells were cultured in glucose-free RPMI medium supplemented with 10 mM galactose. When cells reached 80% confluence, they were detached using 2 mL of trypsin-EDTA solution (0.2 g of EDTA) for 5 min at 37 °C, then resuspended in fresh medium and centrifuged at 100 × g for 1 min. After centrifugation, cells were counted using a Neubauer chamber and seeded at […] per well in 96-well plates containing 180 μL of culture medium. Plates were incubated at 37 °C with 5% CO2 for 12–16 h to allow for cell adhesion. […] After treatment, 40 μL of a 0.15 mg/mL resazurin solution (RSZ) was added to each well and incubated for an additional 5 h. RSZ is a nontoxic, cell-permeable blue dye that is reduced by metabolically active cells to highly fluorescent pink resorufin. Fluorescence was measured using a fluorimeter with excitation/emission at 560/590 nm. Cell viability was calculated relative to untreated controls (set at 100%), determined using GraphPad Prism 8."}, "[5]": {"system": "P. falciparum ATQ_R1 strain", "assay": "SYBR Green growth assay, asexual blood stages, ATQ_R1 strain", "assay_type": "cell-based, Plasmodium falciparum", "conditions": "Plasmodium falciparum, 72 h", "experimental": "as §1, §2, §3"}, "P. falciparum 7G8 strain": {"system": "P. falciparum 7G8 strain", "assay": "SYBR Green growth assay, asexual blood stages, 7G8 strain", "assay_type": "cell-based, Plasmodium falciparum", "conditions": "Plasmodium falciparum; 7G8 strain, 72 h; read-out: IC50", "experimental": "as §1, §2, §3"}, "P. vivax ookinetes": {"system": "P. vivax ookinetes", "assay": "Ex vivo P. vivax ookinete formation assay with patient isolates", "assay_type": "cell-based, Plasmodium vivax", "conditions": "Plasmodium vivax, 24 h, 10 μM, n = 6 patients, read-out: P. vivax ookinete formation inhibition (median)", "experimental": "Participants were recruited from patients diagnosed with P. vivax malaria via Giemsa-stained blood smears at CEPEM in Porto Velho, Rondônia, Brazil (#28176720.9.0000.0011). Criteria included: P. vivax parasitemia >2000 parasites/μL, age 18–85, no severe malaria, no concomitant diseases, nonpregnant, and consent to study procedures. Approximately 10 mL of venous blood was collected into heparin-coated vials, maintained at 37 °C, and transported to PIVEM for DMFA. Malaria treatment followed Brazilian Ministry of Health guidelines and was unaffected by study participation. […] Erythrocytes were washed with incomplete RPMI-1640 medium by centrifugation at 1500 rpm for 10 min to remove leukocytes. […] The sample was centrifuged once at 450 g for 15 min without a brake. After centrifugation, the pellet remaining at the interface was collected and washed twice at 2000 g for 5 min. […] The parasites were incubated for 24 h at a temperature of 21–24 °C. After this period, the activity of the compounds was determined by microscopy, counting 100 fields to determine the parasitemia per μL in each sample, and counting the mature and immature ookinetes. […] Red blood cells were then washed with incomplete RPMI-1640 medium through centrifugation at 1500 rpm for 10 min to remove leukocytes. […] The sample was centrifuged once at 2000 rpm for 15 min without brake. After centrifugation, the remaining pellet at the interface was collected and washed twice at 2000 rpm for 5 min. […] Parasites were incubated for 24 h at a temperature of 21–24 °C. After this period, compound activity was determined by microscopy counting in 100 fields to determine parasitemia per μL in each sample."}, "TM90C2B": {"system": "TM90C2B", "conditions": "strain TM90C2B; cited from earlier work"}, "[6]": {"system": "P. falciparum salivary gland infections in mosquitoes", "design": "method as in Sáenz et al.", "conditions": "drug-treated blood at 1 μM, compared to untreated control; ref Sáenz et al.; cited from earlier work"}, "[7]": {"system": "P. falciparum oocysts in An. freeborni", "design": "method as in Sáenz et al.", "conditions": "early stage gametocyte treatments; ref Sáenz et al.; cited from earlier work"}, "164/GFP": {"system": "164/GFP", "conditions": "strain 164/GFP; cited from earlier work"}}, "data": [{"compound": "N[C@@H]1[C@H]2CN(c3nc4c(cc3F)c(=O)c(C(=O)O)cn4-c3ccc(F)cc3F)C[C@@H]12", "note": "[trovafloxacin]", "values": [{"measurement": "IC50 P. falciparum hepatic stages", "setting": "[1]", "result": "21.6 ± 2.6", "unit": "µg/mL"}]}, {"compound": "O=C1C(O)=C([C@H]2CC[C@H](c3ccc(Cl)cc3)CC2)C(=O)c2ccccc21", "note": "[Atovaquone, atovaquone, reference compound]", "values": [{"measurement": "IC50", "setting": "[2]", "result": "9 ± 0.8", "unit": "nM"}, {"measurement": "IC50", "setting": "[3]", "result": "> 10000", "unit": "nM"}, {"measurement": "IC50", "setting": "P. falciparum HB3 strain", "result": "0.7 ± 0.4", "unit": "nM"}, {"measurement": "IC50", "setting": "[4]", "result": "1 ± 0.4", "unit": "nM"}, {"measurement": "cell survival", "setting": "HepG2 cells", "result": "≥ 60", "unit": "%"}, {"measurement": "IC50", "setting": "[5]", "result": "> 10000", "unit": "nM"}, {"measurement": "IC50", "setting": "P. falciparum 7G8 strain", "result": "6 ± 4", "unit": "nM"}, {"measurement": "inhibition at 10 µM", "setting": "P. vivax ookinetes", "result": 97, "unit": "%"}]}, {"compound": "CCCCCCCc1c(C)[nH]c2cc(F)cc(F)c2c1=O", "note": "[ELQ-121]", "values": [{"measurement": "IC50", "setting": "TM90C2B", "result": 1.7, "unit": "nM"}]}, {"compound": "CCCCc1cc2c(=O)c(C(=O)OCC)c[nH]c2cc1OCCOc1ccccc1", "note": "[ICI 56.780]", "values": [{"measurement": "reduction of salivary gland infections", "setting": "[6]", "result": 80, "unit": "%"}, {"measurement": "reduction in oocyst numbers", "setting": "[7]", "result": 100, "unit": "%"}]}, {"compound": "Cc1c(F)c(N2CCNC(C)C2)cc2c1c(=O)c(C(=O)O)cn2C1CC1", "note": "(centres unmarked) [Grepafloxacin]", "values": [{"measurement": "IC50 P. falciparum hepatic stages", "setting": "[1]", "result": "5.0 ± 0.2", "unit": "µg/mL"}]}, {"compound": "CCCCCCCCCCOc1cc2c(O)c(C(=O)OCC)cnc2cc1OCC", "note": "[Decoquinate]", "values": [{"measurement": "IC50", "setting": "164/GFP", "result": 10, "unit": "nM"}]}]}
